Laboratory results from the supplement of paper PMC12317010.

Experiment: collision cross section in nitrogen (drift tube, single-field); higher = larger gas-phase ion size
[1] = ion type: [M+Na], ion source: ESI, ion mode: Positive
[2] = ion type: [M+H], ion source: ESI, ion mode: Positive
[3] = ion type: [M-H], ion source: ESI, ion mode: Negative
[4] = ion type: [M+H], ion source: APCI, ion mode: Positive
[5] = ion type: [M+], ion source: APCI, ion mode: Positive
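Further: chemical standards at 10 µM analysed by drift tube IMS-QTOF MS in about 3.95 torr nitrogen, mean of duplicate injections differing ≤1%, mass error below 10 ppm.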

SMILES | collision cross section in nitrogen [1] [Å²] | collision cross section in nitrogen [2] [Å²] | collision cross section in nitrogen [3] [Å²] | collision cross section in nitrogen [4] [Å²] | collision cross section in nitrogen [5] [Å²]
c1cc(C(c2ccc(OCC3CO3)cc2)c2ccc(OCC3CO3)cc2)ccc1OCC1CO1 (configuration not stated) | 199.3 |  |  |  | 
C1CC(COCC2CO2)CCC1COCC1CO1 (configuration not stated) | 160.1 |  |  |  | 
CC(=O)NC1(c2cccc(F)c2)CCN(CC[C@@]2(c3ccc(Cl)c(Cl)c3)CN(c3ccccc3)C(=O)CO2)CC1 | 250.7 | 243.8 |  |  | 
CC(C)CCCCCCCOC(=O)c1ccccc1C(=O)OCCCCCCCC(C)C | 225.8 |  |  |  | 
Cc1cc(SCc2sc(-c3ccc(C(F)(F)F)c(F)c3)nc2C)ccc1OCC(=O)O |  | 194.2 | 199.5 | 194.4 | 
CC1=NN(c2cccc(S(=O)(=O)O)c2)C(=O)C1 | 161.9 | 161.7 | 156.5 |  | 
CC1=NN(c2ccc(S(=O)(=O)O)cc2)C(=O)C1 |  | 162.7 | 159.1 |  | 
CCCCOC(=O)COC(=O)c1ccccc1C(=O)OCCCC | 193.5 |  |  |  | 
CCN(CC)c1ccc2cc(-c3nc4cc(S(N)(=O)=O)ccc4o3)c(=O)oc2c1 | 219.6 | 205.5 | 218.6 |  | 
CN(C)C(=O)Nc1cccc(OC(=O)NC(C)(C)C)c1 | 175 |  |  |  | 
CNC(=O)ON=C(CSC)C(C)(C)C | 160.6 |  |  |  | 
CNCc1cc(F)ccc1Oc1ccc(Cl)c(Cl)c1 |  | 173.4 |  |  | 
CNCc1ccc(NC(=O)c2c[nH]c3c2C(=O)CCC3)cc1 | 182.6 |  | 178.1 |  | 
CN[C@H]1CC[C@@H](c2ccc(Cl)c(Cl)c2)c2ccc(S(N)(=O)=O)cc21 |  |  | 197.2 |  | 
COc1cc(C(C)C)c2c(c1)S(=O)(=O)N(COc1cc(=O)n3cccc(OCCN4CCCCC4)c3n1)C2=O | 230.1 | 226.9 |  | 228 | 
COCc1nnc(-c2ccc[n+]([O-])c2)n1-c1c(Cl)c(Cl)cc2[nH]c(=O)c(=O)[nH]c12 | 193.2 | 193.1 | 190.9 |  | 
Cc1c(C2(c3cc(Br)c(O)c(Br)c3C)c3ccccc3OS2(=O)=O)cc(Br)c(O)c1Br |  |  | 217.4 |  | 

SMILES | collision cross section in nitrogen [1] [Å²] | collision cross section in nitrogen [2] [Å²] | collision cross section in nitrogen [3] [Å²] | collision cross section in nitrogen [4] [Å²] | collision cross section in nitrogen [5] [Å²]
Cc1cc(Cl)ccc1OCC(=O)O |  |  | 146.1 |  | 
Cc1ccc(Nc2ccc(Nc3ccc(C)cc3S(=O)(=O)O)c3c2C(=O)c2ccccc2C3=O)c(S(=O)(=O)O)c1 |  | 235.2 | 227.8 |  | 
N#CC(CCc1ccc(Cl)cc1)(Cn1cncn1)c1ccccc1 (configuration not stated) |  | 183.1 |  | 183.9 | 
O=C(N[C@@H](c1ccccc1)[C@@H]1CCCCN1)c1cccc(C(F)(F)F)c1Cl | 200.2 | 190.4 | 191.6 | 190.3 | 
N#C[C@@H]1CC(F)(F)CN1C(=O)CNC1CC2CCC(C1)N2c1ncccn1 (some centres not stated) | 182.7 | 176.9 |  | 176.9 | 
O=C(NS(=O)(=O)/C=C/c1cccs1)c1ccc(F)cc1Br | 189 |  | 178 |  | 
N#Cc1ccc(C2CCCc3cncn32)cc1 (configuration not stated) |  | 157.2 |  | 157 | 
N#Cc1ccc(N(CC(N)=O)CC(F)(F)F)cc1C(F)(F)F |  |  | 163.7 |  | 
Nc1c(S(=O)(=O)O)cc(Br)c2c1C(=O)c1ccccc1C2=O |  |  | 169.4 |  | 
NCC1(Cc2noc(=O)[nH]2)CCCCC1 |  | 154 | 151.4 |  | 
O=C(NS(=O)(=O)/C=C/c1ccccc1)c1ccc(F)cc1Cl | 188.9 |  | 177.6 |  | 
O=S(=O)(c1ccc2c(c1)CCCN2)N1CCC[C@@H]2CCCC[C@H]21 | 195.9 | 178.5 | 179.6 | 179.5 | 
O=[N+]([O-])c1ccc(C=Cc2ccc([N+](=O)[O-])cc2S(=O)(=O)O)c(S(=O)(=O)O)c1 |  |  | 182.4 |  | 
O=C(NO)C1(NS(=O)(=O)c2ccc(Oc3ccc(F)cc3)cc2)CCOCC1 | 206.8 |  | 184.6 |  | 
O=C(O)C1(c2ccc3c(c2)OC[C@H](Cc2ccc(-c4ccccc4)cc2)[C@H]3O)CCCC1 | 202.9 |  |  |  | 
COC(=O)N(C(=O)N1COC2(C(=O)OC)Cc3cc(Cl)ccc3C2=N1)c1ccc(OC(F)(F)F)cc1 (racemic) [(+/-)-Indoxacarb] | 220.6 | 205.6 |  |  | 

Results, then the molecule that gave them:

collision cross section in nitrogen [1] [Å²] | collision cross section in nitrogen [2] [Å²] | collision cross section in nitrogen [3] [Å²] | collision cross section in nitrogen [4] [Å²] | collision cross section in nitrogen [5] [Å²] | SMILES
184.5 |  |  |  |  | C=CC(=O)OCCn1c(=O)n(CCOC(=O)C=C)c(=O)n(CCOC(=O)C=C)c1=O
 |  | 142.1 |  |  | CC(C)(C)c1n[nH]c(=S)n(N)c1=O
 | 220.3 | 222.7 | 220.2 | 218.2 | CC(C)(c1ccccc1)c1ccc(Nc2ccc(C(C)(C)c3ccccc3)cc2)cc1
151.6 |  |  |  |  | CC(C)(CO)COC(=O)C(C)(C)CO
207.5 |  | 199.5 |  |  | CC(C)c1cccc(C(C)C)c1NC(=O)NS(=O)(=O)c1cc(C(C)(C)O)co1
 | 198.2 | 198 |  |  | CC1(C)CCC(C)(C)c2cc(C(=O)Nc3ccc(C(=O)O)cc3)ccc21
 | 176.7 | 183.7 | 176.6 |  | Cc1c(-c2cccnc2)c2ccccc2n1CCCCC(=O)O
190.9 | 186.3 | 191.5 |  |  | Cc1oc2c(NC(=O)c3c(Cl)cccc3Cl)cccc2c1C(C)(C)O
236.4 |  | 237.8 | 233.4 | 234.2 | Cc1cc(CCC(=O)OCCOCCOCCOC(=O)CCc2cc(C)c(O)c(C(C)(C)C)c2)cc(C(C)(C)C)c1O
 |  | 199.1 |  |  | Cc1cc(NC(=O)C(=O)O)cc(C)c1Oc1ccc(O)c2c1CCC2
226.8 |  | 225.2 |  |  | Cc1ccc2oc(CN(Cc3ccccc3)C(=O)Nc3c(F)cc(F)cc3F)c(-c3ccc(Cl)cc3)c2c1
 |  |  |  | 163.2 | CC1COCc2cc3c(cc21)C(C)(C)C(C)C3(C)C (configuration not stated)
192.8 | 185.9 |  | 186.6 |  | CCC(C)N(C)C(=O)c1cc2ccccc2c(-c2ccccc2Cl)n1 (configuration not stated)
 | 195.7 |  | 195.7 |  | CCC(Cc1ccccc1)(C(=O)c1ccc(N2CCOCC2)cc1)N(C)C (configuration not stated)
191.7 | 186.1 | 190.5 |  |  | CCCc1c(OCCCOc2ccc(OCC(=O)O)cc2)ccc(C(C)=O)c1O
194.5 | 195.5 |  |  |  | CCCCOC(=O)[C@@H](C)Oc1ccc(Oc2ccc(C(F)(F)F)cn2)cc1

collision cross section in nitrogen [1] [Å²] | collision cross section in nitrogen [2] [Å²] | collision cross section in nitrogen [3] [Å²] | collision cross section in nitrogen [4] [Å²] | collision cross section in nitrogen [5] [Å²] | SMILES
256.9 | 236.5 | 238.6 | 237 |  | CCCOc1ccc(S(=O)(=O)N2CCN(CC)CC2)cc1-c1nc2c(CC)n(Cc3ccccn3)nc2c(=O)[nH]1
233.4 | 241.2 |  |  |  | CCN(Cc1cccnc1)C(=O)c1cccc(Cl)c1[C@]1(C)C(=O)N(Cc2ccc(OC)cc2OC)c2ccc(Cl)cc21
233.5 |  | 231.1 |  |  | CC[C@@H]1C[C@H](N(Cc2cc(C(F)(F)F)cc(C(F)(F)F)c2)C(C)=O)c2cc(C(F)(F)F)ccc2N1C(=O)OC(C)C
169.8 | 155.1 | 159.8 |  |  | CC[C@H](C)[C@@H](C(=O)O)n1sc2ccccc2c1=O
 |  | 214.8 |  |  | COc1cc(S(=O)(=O)O)c(C)cc1N=Nc1c(O)ccc2cc(S(=O)(=O)O)ccc12
207.9 | 205.5 | 202.7 |  |  | CS(=O)(=O)c1ccc([C@@H](CC2CCCC2)C(=O)Nc2cnccn2)cc1Cl
208.1 | 195.7 | 196.9 | 196.5 |  | CSc1ccc(Oc2ccc(S(N)(=O)=O)cc2CN(C)C)cc1C
197.1 | 196.3 | 202.7 |  |  | C[C@@H](Oc1ccc(CNC(=O)c2cccnc2Oc2ccc3c(c2)OCO3)c(F)c1)C(=O)O
165.5 |  |  |  |  | NC(=O)N(O)[C@@H]1COc2cc(OCc3ccccc3)ccc21
191.1 |  |  |  |  | NC(=O)N(O)[C@@H]1C=C[C@H](Oc2cccc(Oc3ccc(F)cc3)c2)C1
 |  | 173.7 |  |  | NC(=O)N1C(=O)C(C(=O)c2cc(Cl)cs2)c2cc(F)c(Cl)cc21 (configuration not stated)
 |  | 162.5 |  |  | O=C(O)C1=NN(c2ccc(S(=O)(=O)O)cc2)C(=O)C1
211 |  | 198.1 |  |  | O=C(O)CCN(C1(C(=O)NO)CCCC1)S(=O)(=O)c1ccc(Oc2ccc(F)cc2)cc1
183.7 |  |  |  |  | CCCCCCCCCCCCCC(=O)OCC(O)CO (racemic) [(+/-)-2,3-Dihydroxypropyl tetradecanoate]
 |  | 163.9 |  |  | O=C1CC(c2ccc(O)cc2)Oc2cc(O)cc(O)c21 (racemic) [(+/-)-Naringenin]
